The values below come from ChEMBL document CHEMBL5244235, “Diarylpentanoids with antitumor activity: A critical review of structure-activity relationship studies” (Eur J Med Chem, 2020).

The structures appear in SMILES notation.

For one test, the system named is MDA-MB-231. The test is described as follows: Growth inhibition of human MDA-MB-231 cells measured after 72 hrs by microplate reader analysis. In kind it is functional.
The next test deals with RPMI-7951. Description: Growth inhibition of human RPMI-7951 cells measured after 72 hrs by microplate reader analysis. The test is classed as functional, cell-based. The following applies: RPMI-7951, 72 h.
The next test relates to SVR. The test is described as follows: Anti-angiogenesis activity in mouse SVR cells assessed as cell growth inhibition. The test is classed as functional, cell-based.
Test [1] in a line: Anti-angiogenesis activity in […] MS-1 cells assessed as cell growth inhibition. The test is classed as functional, cell-based.
Another test concerns HUVEC. The test is described as follows: Anti-angiogenesis activity in HUVEC cells assessed as cell growth inhibition. In kind it is functional, cell-based. The following applies: Homo sapiens.
The test system of test [2] is B16. The test is described as follows: Antiproliferative activity against mouse B16 cells assessed as cell growth inhibition measured after 72 hrs by MTT assay. The test is classed as functional, cell-based. The following applies: B16, 72 h.
The subject of test [3] is L1210. Description: Antiproliferative activity against mouse L1210 cells assessed as cell growth inhibition measured after 72 hrs by MTT assay. The following applies: L1210, 72 h. In kind it is functional, cell-based.
The subject of the next test is NCI-H460. The test is described as follows: Antiproliferative activity against human NCI-H460 cells assessed as cell growth inhibition measured after 24 hrs by MTT assay. The test is classed as functional, cell-based. The following applies: NCI-H460, 24 h.
Test [4] relates to A549. The test is described as follows: Antiproliferative activity against human A549 cells assessed as cell growth inhibition measured after 24 hrs by MTT assay. The test is classed as functional, cell-based. The following applies: A549, 24 h.
Test [5] deals with B16. The test is described as follows: Antiproliferative activity against mouse B16 cells assessed as cell growth inhibition. In kind it is functional, cell-based.
The subject of test [6] is L1210. The test is described as follows: Antiproliferative activity against mouse L1210 cells assessed as inhibition of cell growth. In kind it is functional, cell-based.
Another test has as its system A2780. Description: Antiproliferative activity against human A2780 cells assessed as cell viability at 10 uM measured after 24 hrs by MTT assay relative to control. In kind it is functional. The following applies: read-out: Activity.
A further test concerns GCIY. Description: Antiproliferative activity against human GCIY cells assessed as cell growth inhibition measured after 72 hrs. The test is classed as functional, cell-based.
A short description of test [7]: Antiproliferative activity against human SH-10-TC cells assessed as cell growth inhibition measured after 72 hrs. The test is classed as functional, cell-based.
For a further test, the system named is HCT-116. The test is described as follows: Antiproliferative activity against human HCT-116 cells assessed as cell growth inhibition measured after 72 hrs. The following applies: HCT-116, 72 h. In kind it is functional, cell-based.
Test [8] relates to DLD-1. Description: Antiproliferative activity against human DLD-1 cells assessed as cell growth inhibition measured after 72 hrs. In kind it is functional, cell-based. The following applies: DLD-1, 72 h.
For test [9], the system named is A549. Description: Antiproliferative activity against human A549 cells assessed as cell growth inhibition measured after 72 hrs. The test is classed as functional, cell-based. The following applies: A549, 72 h.
For the next test, the system named is ACHN. The test is described as follows: Antiproliferative activity against human ACHN cells assessed as cell growth inhibition measured after 72 hrs. The test is classed as functional, cell-based.
A further test has as its system Huh-7. Description: Antiproliferative activity against human Huh-7 cells assessed as cell growth inhibition measured after 72 hrs. The test is classed as functional, cell-based. The following applies: Huh-7, 72 h.
Test [10] in a line: Antiproliferative activity against human OVK18 cells assessed as cell growth inhibition measured after 72 hrs. The test is classed as functional, cell-based. The following applies: OVK18, 72 h.
A further test deals with MCF7. Description: Antiproliferative activity against human MCF7 cells assessed as cell growth inhibition measured after 72 hrs. The test is classed as functional, cell-based. The following applies: MCF7, 72 h.
In a further test the test system is A-431. Description: Antiproliferative activity against human A-431 cells assessed as cell growth inhibition measured after 72 hrs. The test is classed as functional, cell-based. The following applies: A-431, 72 h.
In the next test the test system is HuCCT-1. Description: Antiproliferative activity against human HuCCT-1 cells assessed as cell growth inhibition measured after 72 hrs. In kind it is functional, cell-based. The following applies: HuCCT-1, 72 h.
The next test deals with 8505C. Description: Antiproliferative activity against human 8505C cells assessed as cell growth inhibition measured after 72 hrs. The test is classed as functional, cell-based.
Another test deals with G-361. Description: Antiproliferative activity against human G-361 cells assessed as cell growth inhibition measured after 72 hrs. In kind it is functional, cell-based. The following applies: G-361, 72 h.
In another test the test system is PC-3. Description: Antiproliferative activity against human PC-3 cells assessed as cell growth inhibition measured after 72 hrs. In kind it is functional, cell-based. The following applies: PC-3, 72 h.
A short description of test [11]: Antiproliferative activity against human PK-1 cells assessed as cell growth inhibition measured after 72 hrs. The test is classed as functional, cell-based. The following applies: PK-1, 72 h.
The test system of test [12] is DLD-1. Description: Antiproliferative activity against human DLD-1 cells assessed as cell growth inhibition measured after 96 hrs. In kind it is functional, cell-based. The following applies: DLD-1, 96 h.

In turn, `CN1C/C(=C\c2ccccc2O)C(=O)/C(=C/c2ccccc2O)C1` registered a GI50 with MDA-MB-231 of 0.9 µM. The 50% inhibitory concentration (IC50) worked out at 0.9 µM in the test on RPMI-7951, 1.1 µM in the test on SVR, 1.1 µM in test [1] and 1.1 µM in the test on HUVEC.
As to `COc1cc(/C=C2\CC(c3ccccc3)C/C(=C\c3cc(OC)c(OC)c(OC)c3)C2=O)cc(OC)c1OC` (stereo not drawn), the half-maximal inhibitory concentration (IC50) amounted to 0.51 µM with B16 [2] and 0.12 µM with L1210 [3].
Turning to `CCN1C/C(=C\c2ccc(OC)c(OC)c2OC)C(=O)/C(=C/c2ccc(OC)c(OC)c2OC)C1`, the 50% inhibitory concentration (IC50) with NCI-H460 amounted to 2.3 µM; in the test with A549 [4], 5.3 µM.
As to `COc1cc(/C=C2\CNC/C(=C\c3cc(OC)cc(OC)c3OC)C2=O)c(OC)c(OC)c1`, the results for the IC50 with B16 [5] and in the test with L1210 [6] were 0.2 µM and 0.3 µM, respectively.
In the case of `CC1(C)C=C(CN2C/C(=C\c3ccc(F)cc3)C(=O)/C(=C/c3ccc(F)cc3)C2)C(C)(C)N1O`, the viability at 10 µM in the test on A2780 was 20%.
With `O=C1/C(=C/c2ccc([N+](=O)[O-])cc2)CC(c2ccccc2)C/C1=C\c1ccc([N+](=O)[O-])cc1` (stereo not drawn), the IC50 is 1.6 µM in the test with B16 [2] and 0.35 µM in the test with L1210 [3].
On to `C=C1CC2CC(C1)/C(=C\c1ccc(OC)c(OC)c1)C(=O)/C2=C/c1ccc(OC)c(OC)c1`, for which the half-maximal inhibitory concentration (IC50) (in the test with GCIY; in [7]; with HCT-116; with DLD-1 [8]; in the test on A549 [9]; with ACHN) was greater than 50 µM in each case. In addition, the IC50 (with Huh-7; in test [10]; in the test with MCF7; in the test with A-431; in the test on HuCCT-1; in the test on 8505C) was greater than 50 µM throughout. The 50% inhibitory concentration (IC50) in the test with G-361 is greater than 50 µM; in the test on PC-3 it was greater than 50 µM; in [11], greater than 50 µM; with DLD-1 [12], 8 µM.
In the case of `O=C1/C(=C/c2ccccc2)CCC/C1=C\c1ccccc1` [2,6-DIBENZYLIDENECYCLOHEXANONE], the IC50 (with GCIY; in [7]; in the test on HCT-116; in the test on DLD-1 [8]; in the test with A549 [9]; in the test on ACHN) was greater than 50 µM throughout. The IC50 (in the test with Huh-7; in [10]; in the test on MCF7; in the test with A-431; in the test on HuCCT-1; with 8505C) was greater than 50 µM in each case. The half-inhibitory concentration (IC50) was greater than 50 µM with G-361, greater than 50 µM in the test on PC-3, greater than 50 µM in test [11] and 3 µM with DLD-1 [12].
With `COc1cc(/C=C/C(=O)CC(=O)/C=C/c2ccc(O)c(OC)c2)ccc1O` [CURCUMIN], the half-inhibitory concentration (IC50) came to 5.3 µM in the test with NCI-H460 and 32.5 µM in the test on A549 [4].
